Results on 2 molecules are retold here after paper PMC9377723 (Clinical Cancer Research, 2021).

One series concerns plasma estradiol. The series is described as follows: Plasma estradiol concentration, baseline vs cycle 3 day 15. It counts as in vivo, patients.
For series [1], the system named is HR+/HER2− advanced breast cancer. The series is classed as in vivo, patients. Particulars: for Median PFS: updated analysis.
Series [2] shares this test system. Particulars: cited from earlier work.
A short description of series [3]: Steady-state plasma pharmacokinetics. The series is classed as in vivo, patients.
Series [4] deals with patients with HR+/HER2− advanced breast cancer. Description: MONALEESA-7 adverse events. It counts as in vivo. Particulars: adverse event of special interest.
Where [5] appears, read: patients less than 40 years of age.

“Also recorded” adds a separate entry of the source. Where two headings read alike, the source gives them in different places.

On to `CN(C)C(=O)c1cc2cnc(Nc3ccc(N4CCNCC4)cn3)nc2n1C1CCCC1` [Ribociclib, ribociclib], for which the “Patients with estradiol below the minimum detectable limit (0.5 pg/mL)” value in the series on plasma estradiol (86 of 90 patients) amounted to 96%. In the series on plasma estradiol (patients who received an NSAI), the “Mean percentage decrease in plasma estradiol concentration compared with baseline” value came to 89%. Also, the “mOS (median overall survival)” value in series [1] (Age: <40 years) is reported as 51.3 months. Moreover, in series [1] (Age: ≥40 years), the “mOS (median overall survival)” value came to 58.8 months. Moreover, in series [1] (All patients), the “Increase in survival over the MONALEESA-7 placebo arm” value was 22%, the “Kaplan–Meier estimated OS at 48 months (survival rate at 4 years)” value is reported as 60%, the “Median chemotherapy-free survival (CFS)” value stood at 42.4 months and the “PFS2 HR (95% CI) vs placebo” value amounted to 0.68. Moreover, in series [1] (All patients), the “PFS2 Median” value came out at 44.2 mo, the “Patients who had died at data cut-off” value stood at 42%, the “Patients who received chemotherapy as a subsequent therapy at any time” value amounted to 43% and the “Patients with disease progression on subsequent therapy or death (PFS2 events)” value came to 53%. Moreover, in series [1] (All patients), the “Patients with receipt of chemotherapy or death” value was 57% and the “Survival rate at 54 months” value came to 53%. The “Improvement in OS over ET alone” value in series [1] (All patients, 58.7 vs 48.0 months) is 10.7 months. The “mOS (median overall survival)” value in series [1] (All patients, median follow-up 53.5 months) worked out at 58.7 months. In addition, the “mOS (median overall survival)” value in series [1] (Chemotherapy (metastatic): Yes) is listed as 47.2 months. In addition, the “mOS (median overall survival)” value in series [1] (Disease-free interval: De novo) was “not reached”. Further, the “mOS (median overall survival)” value in series [1] (Endocrine combination partner: NSAI and goserelin) is given as 58.7 months. For the same molecule, the “mOS (median overall survival)” value in series [1] (Endocrine combination partner: Tamoxifen and goserelin) is “not estimable”. In addition, the Patients who died in series [1] (Patients receiving an NSAI) was 43%. This molecule returned a Patients who died in series [1] (Patients receiving tamoxifen) of 39%. For the same molecule, in series [1] (difference in median chemotherapy-free survival), the “Delay in chemotherapy vs placebo, without censoring” value is listed as 16.0 month. The “Delay in chemotherapy vs placebo, censoring for death” value in series [1] (difference in median time to first chemotherapy) came out at 14.1 month. In series [1] (in vivo), the “Median time to first chemotherapy (TTC)” value stood at 50.9 months. For the same molecule, in series [1] (overall), the “Duration of first subsequent antineoplastic therapy after discontinuation of study treatment” value is 7.5 months. Besides, in series [1] (setting [5]), the “Reduction in the risk of death” value came to 35% and the “Median PFS” value is 29.7 months. Moreover, in series [1] (patients ≥40 years of age), the “Median PFS” value was 26.4 months. Moreover, the “Median OS, prespecified second interim (final) analysis” value in series [2] (median follow-up 34.6 months) is given as “not reached”. In addition, the “Median PFS (primary endpoint)” value in series [2] (primary analysis) was 23.8 months. In addition, in series [3] (in vivo), the “Drug–drug interaction between ribociclib and NSAI partner” value is recorded as “No drug–drug interactions; also recorded: no apparent drug–drug interaction”. Further, in series [4], the “Hepatobiliary toxicity, grade 3 or 4” value was determined as 12%; the “Neutropenia, grade 3 or 4” value is on record as 65%; the “Prolonged QT interval, grade 3 or 4” value came out at 2%.

`CC/C(=C(\c1ccccc1)c1ccc(OCCN(C)C)cc1)c1ccccc1` [Tamoxifen, tamoxifen]: the “Exposure with ribociclib versus placebo” value in series [3] (tamoxifen 20 mg) is “approximately 2 times”.
